Assay results published in patent publication US8404696B2, “Quinazoline-2,4-dione derivative, and medical compositions for the prophylaxis and treatment of cranial nerve disease containing the same” (Shin Poong Pharmaceutical Co., Ltd., priority 2008, dated 2013).
Values after ≈ are worked out from the molar mass of the structure shown. One block for each compound: values may come before it.

Assays:
[1] = system: pentylentetrazole (PTZ)-induced convulsion; assay: Anti-convulsant effect, pentylentetrazole (PTZ) test; format: in vivo; conditions: 10 mg/kg intraperitoneally, PTZ 80 mg/kg subcutaneously; for mortality rate / Induction percentage of convulsion: (animals/total); for mortality rate: negative control 70(17/23); for Induction percentage of convulsion: negative control 100(23/23); for Initiation time of convulsion: negative control 5.0 ± 0.7; for Duration of convulsion: negative control 46.7 ± 3.3
Experimental: An experiment was performed by the method of Ali et al. (Ali, A. et al. 2006, Pharmacological Reports, 58: 242-245). A 10 mg/kg dose of compound was intraperitoneally administered to identify the anti-convulsant effect and the effect was observed (Table 8). Researching the process of activity was performed by the Anti-epileptic Drug Development Program (ADD) of NIH during development of the anti-convulsant drug. One of the assessed items of anti-convulsant activity in the first step of this program is the pentylentetrazole (PTZ) test. […] After 10 mg/kg of the testing drug was administered, assessment was performed by estimating the initiation time of convulsion, duration until convulsion completely disappeared and mortality rate. It was assessed as having an anti-convulsant effect when a single episode of clonic spasm was not shown over 5 seconds on at least one of the 4 laboratory animals after PTZ administration.

mouse brain cells = assay: Inhibitory effect on ROS production in brain cells (DCF-DA, NMDA-induced); format: cell-based; conditions: 24 h; dose suppressing 50% of production of reactive oxygen compared to control; mouse brain cells; read-out: ROS inhibitory effect ID50
Experimental: Oxidative stress was measured to test inhibitory effects on the production of reactive oxygen species (ROS) by using DCF-DA, which is a fluorescent probe. Brain cells were obtained from brain cortex of mouse to prepare cell solution with 2×10^6 cells/ml. Each brain cell was treated with 11 μM of DCF-DA followed by reaction in 37° C., 5% CO2 incubator for an hour. After washing twice, Compound 3 was treated with a concentration of 125 μg/ml and 250 μg/ml. At the same time, 300 μM of NMDA was treated and it was incubated in 37° C., 5% CO2 incubator for 24 hours.
(§1) ROS inhibitory effect of compounds was represented to the dose suppressing 50% of production of reactive oxygen compared to control. […] The activity of superoxide dismutase (SOD) was measured by using a kit acquired in Sigma.

[2] = system: superoxide dismutase (SOD); assay: Increase of superoxide dismutase (SOD) activity in mouse brain cells; format: cell-based; conditions: 100 μg/ml
Experimental: as §1

[3] = system: mixed culture of nerve cells-glial cells; assay: Protecting effect on NMDA-induced nerve cell death (LDH release); format: cell-based, ICR mouse; conditions: 100 μM NMDA, LDH release after 24 hours
Experimental: Isolation and culture of nerve cells were performed by Choi's method (Choi, D. W. 1985, Neurosci. Lett., 58: 293-297). That is, the cortex was isolated in fetus ICR mouse that was 14 days pregnant, and then single cells were obtained from the tissue using pipette. The cells were aliquoted into 2×10^5/well density in a 24-well plate (Falcon) in which glial cells of cerebral cortex had been cultured in an incubator maintained at 37° C. with 5% CO2 for over 3 weeks. The culture medium was supplemented with MEM (minimum essential medium, Sigma), 2 mM glutamine, 21 mM glucose, 26.5 mM bicarbonate, 10% fetal bovine serum (FBS). In 3-5 days after aliquot, 10 μM Ara-C (cytosine arabinoside) was treated to suppress proliferation of neuroglia. And it was treated with 100 μM NMDA and 1 μg/mL or 2 μg/mL of each sample (compound) to induce the death of nerve cells due to excitable toxicity for 20 minutes, in 12-15 days after aliquot. Because of nerve cell death, lactate dehydrogenase (LDH) accumulated in proportion to the number of dead cells. In 24 hours after drug treatment, the amount of dehydrogenase (LDH) released to outside of cells was measured by using an […] measurement kit (CytoTox 96, Promega). After the reaction was completed, the change of absorbance depending on the amount of LDH was measured by using a microplate spectrophotometer.

thoracic aorta of rats = assay: Relaxing effect on thoracic aorta contracted by phenylephrine (organ bath); parameters: species or system rats of SD species; conditions: Rattus norvegicus; 67 μg/mL; phenylephrine 0.5 μM; mean n = 3; read-out: Relaxation percentage
Excerpt: After male rats of SD species (250-300 g) were anesthetized by inhalation of ether, their thoracic aortas were extracted and put into a Krebs buffer (mM; NaCl 118, NaHCO3 27.3, KCl 4.8, MgSO4 1.2, KH2PO4 1.0, CaCl2 1.25, glucose 11.1). 2 mm of aortic ring was made under dissecting microscope and cultured in an organ bath to measure the tension of blood vessels. The organ bath was filled with Krebs buffer and saturated with 95% O2, 5% CO2 to maintain dissolved oxygen and physiological pH. Changing of tension was measured by a tension meter (Hugo-sachs, model K30) and recorded by physiological recorder (Coulbourn polygraph). The length of the blood vessels was increased step by step to make 1.0 g of basal tension for 90 minutes. The equilibrated blood vessel was contracted by phenylephrine (0.5 μM). When the contraction furrow reached equilibrium, compounds were added, followed by observation of relaxation response.

SMILES: O=c1[nH]c2ccccc2c(=O)n1CCCNCCCNCCCn1c(=O)[nH]c2ccccc2c1=O [Compound 24, 3-(3-{3-[3-(2,4-dioxo-1,4-dihydro-2H-quinazolin-3-yl)propylamino]propylamino}propyl)-1H-quinazoline-2,4dione]
mortality rate [1]: 50(3/3) % | Induction percentage of convulsion [1]: 100(6/6) % | Initiation time of convulsion [1]: 6.1 ± 1.7 min | Duration of convulsion [1]: 35.7 ± 84 min | IC50 (mouse brain cells): 122 ± 32.4 µg/mL (≈ 256 µM) | Increase of SOD activity, compared to control [2]: 6.9 ± 3.8 | Inhibitory effect of cell death by NMDA-induced excitable neurotoxicity ([3]; 1 μg/ml compound): 27.4% | Inhibitory effect of cell death by NMDA-induced excitable neurotoxicity ([3]; 2 μg/ml compound): 30.3%

SMILES: O=c1[nH]c2ccccc2c(=O)n1CCCNCCNCCCn1c(=O)[nH]c2ccccc2c1=O [Compound 29, 3-(3-{2-[3-(2,4-dioxo-1,4-dihydro-2H-quinazolin-3-yl)propylamino]ethylamino}propyl)-1H-quinazoline-2,4-dione]
mortality rate [1]: 17(1/6) % | Induction percentage of convulsion [1]: 83(5/6) % | Initiation time of convulsion [1]: 18.2 ± 9.1 min | Duration of convulsion [1]: 30.3 ± 11.1 min | IC50 (mouse brain cells): 10.1 ± 17.3 µg/mL (≈ 21.7 µM) | Increase of SOD activity, compared to control [2]: 3.0 ± 1.1 | Inhibitory effect of cell death by NMDA-induced excitable neurotoxicity ([3]; 1 μg/ml compound): 8.5% | Inhibitory effect of cell death by NMDA-induced excitable neurotoxicity ([3]; 2 μg/ml compound): 29.5%

SMILES: Cn1c(=O)n(CCCNCCCCNCCCn2c(=O)c3ccccc3n(C)c2=O)c(=O)c2ccccc21 [Compound 27, 1-methyl-3-(3-{4-[3-(1-methyl-2,4-dioxo-1,4-dihydro-2H-quinazolin-3-yl)propylamino]butylamino}propyl)-1H-quinazoline-2,4-dione]
mortality rate [1]: 50(3/6) % | Induction percentage of convulsion [1]: 100(6/6) % | Initiation time of convulsion [1]: 8.4 ± 2.6 min | Duration of convulsion [1]: 35.8 ± 9.8 min | IC50 (mouse brain cells): 21.9 ± 16.1 µg/mL (≈ 42.1 µM) | Increase of SOD activity, compared to control [2]: 2.4 ± 7.8 | Inhibitory effect of cell death by NMDA-induced excitable neurotoxicity ([3]; 1 μg/ml compound): 33.7% | Inhibitory effect of cell death by NMDA-induced excitable neurotoxicity ([3]; 2 μg/ml compound): 36.0%

IC50 (mouse brain cells): 103 ± 20.4 µg/mL (≈ 220 µM)
SMILES: O=C(NCCCNCCCCNCCCn1c(=O)[nH]c2ccccc2c1=O)c1ccc(O)cc1 [Compound 8, N-(3-{4-[3-(2,4-dioxo-1,4-dihydro-2H-quinazolin-3-yl)propylamino]butylamino}propyl)-4-hydroxybenzamide]
Inhibitory effect of cell death by NMDA-induced excitable neurotoxicity ([3]; 1 μg/ml compound): 20.0% | Inhibitory effect of cell death by NMDA-induced excitable neurotoxicity ([3]; 2 μg/ml compound): 28.2% | inhibition at 67 µg/mL (thoracic aorta of rats): 35.7%

SMILES: O=c1[nH]c2ccccc2c(=O)n1CCCCNCCCn1c(=O)[nH]c2ccccc2c1=O [Compound 7, 3-{4-[3-(2,4-dioxo-1,4-dihydro-2H-quinazolin-3-yl)propylamino]butyl}-1H-quinazoline-2,4-dione]
mortality rate [1]: 67(4/6) % | Induction percentage of convulsion [1]: 100(6/6) % | Initiation time of convulsion [1]: 3.1 ± 0.3 min | Duration of convulsion [1]: 42.9 ± 8.7 min | IC50 (mouse brain cells): 17.7 ± 17.3 µg/mL (≈ 40.6 µM) | Inhibitory effect of cell death by NMDA-induced excitable neurotoxicity ([3]; 1 μg/ml compound): 26.0% | Inhibitory effect of cell death by NMDA-induced excitable neurotoxicity ([3]; 2 μg/ml compound): 39.7% | inhibition at 67 µg/mL (thoracic aorta of rats): 56.8%

SMILES: O=C1c2ccccc2C(=O)N1CCCNCCCCNCCCn1c(=O)[nH]c2ccccc2c1=O [Compound 28, 3-(3-{4-[3-(1,3-dioxo-1,3-dihydro-isoindole-2-yl)propylamino]butylamino}propyl)-1H-quinazoline-2,4-dione]
mortality rate [1]: 0(0/6) % | Induction percentage of convulsion [1]: 100(6/6) % | Initiation time of convulsion [1]: 4.8 ± 2.2 min | Duration of convulsion [1]: 26.9 ± 6.5 min | IC50 (mouse brain cells): 30.9 ± 13.7 µg/mL (≈ 64.7 µM) | Inhibitory effect of cell death by NMDA-induced excitable neurotoxicity ([3]; 1 μg/ml compound): 23.1% | Inhibitory effect of cell death by NMDA-induced excitable neurotoxicity ([3]; 2 μg/ml compound): 22.4% | inhibition at 67 µg/mL (thoracic aorta of rats): 8.3%

SMILES: CC(=O)N(CCCCn1c(=O)[nH]c2ccccc2c1=O)CCCn1c(=O)[nH]c2ccccc2c1=O [Compound 22, N-[4-(2,4-dioxo-1,4-dihydro-2H-quinazolin-3-yl)butyl]-N-[3-(2,4-dioxo-1,4-dihydro-2H-quinazolin-3-yl)propyl]acetamide]
mortality rate [1]: 0(0/6) % | Induction percentage of convulsion [1]: 83(5/6) % | Initiation time of convulsion [1]: 15.2 ± 9.0 min | Duration of convulsion [1]: 7.0 ± 3.2 min | IC50 (mouse brain cells): 172 ± 23.6 µg/mL (≈ 361 µM) | Increase of SOD activity, compared to control [2]: 3.7 ± 0.8 | Inhibitory effect of cell death by NMDA-induced excitable neurotoxicity ([3]; 1 μg/ml compound): 17.0% | Inhibitory effect of cell death by NMDA-induced excitable neurotoxicity ([3]; 2 μg/ml compound): 14.0%

SMILES: CCCCCCn1c(=O)n(CCCNCCCCNCCCn2c(=O)c3ccccc3n(CCCCCC)c2=O)c(=O)c2ccccc21 [Compound 33, 1-hexyl-3-(3-{4-[3-(1-hexyl-2,4-dioxo-1,4-dihydro-2H-quinazolin-3-yl)propylamino]butylamino}propyl)-1H-quinazoline-2,4-dione]
mortality rate [1]: 83(5/6) % | Induction percentage of convulsion [1]: 100(6/6) % | Initiation time of convulsion [1]: 16.1 ± 2.2 min | Duration of convulsion [1]: 36.6 ± 7.6 min | IC50 (mouse brain cells): 173 ± 19.7 µg/mL (≈ 261 µM) | Inhibitory effect of cell death by NMDA-induced excitable neurotoxicity ([3]; 1 μg/ml compound): 14.6% | Inhibitory effect of cell death by NMDA-induced excitable neurotoxicity ([3]; 2 μg/ml compound): 65.1% | inhibition at 67 µg/mL (thoracic aorta of rats): 38.5%

SMILES: CCCCCCn1c(=O)n(CCCN(CCCCN(CCCn2c(=O)c3ccccc3n(CCCCCC)c2=O)C(=O)OC(C)(C)C)C(=O)OC(C)(C)C)c(=O)c2ccccc21 [Compound 32, (4-{tert-butoxycarbonyl-[3-(1-hexyl-2,4-dioxo-1,4-dihydro-2H-quinazolin-3-yl)propyl]amino}butyl)-[3-(1-hexyl-2,4-dioxo-1,4-dihydro-2H-quinazolin-3-yl)propyl]carbamic acid tert-butyl ester]
mortality rate [1]: 50(3/6) % | Induction percentage of convulsion [1]: 100(5/6) % | Initiation time of convulsion [1]: 11.3 ± 4.5 min | Duration of convulsion [1]: 29.8 ± 12.0 min | IC50 (mouse brain cells): 14.4 ± 7.6 µg/mL (≈ 16.7 µM) | Increase of SOD activity, compared to control [2]: 0.3 ± 7.1 | Inhibitory effect of cell death by NMDA-induced excitable neurotoxicity ([3]; 1 μg/ml compound): 32.0% | Inhibitory effect of cell death by NMDA-induced excitable neurotoxicity ([3]; 2 μg/ml compound): 29.8%

SMILES: Cn1c(=O)n(CCCN(CCCCN(CCCn2c(=O)c3ccccc3n(C)c2=O)C(=O)OC(C)(C)C)C(=O)OC(C)(C)C)c(=O)c2ccccc21 [Compound 26, (4-{tert-butoxycarbonyl-[3-(1-methyl-2,4-dioxo-1,4-dihydro-2H-quinazolin-3-yl)propyl]amino}butyl)-[3-(1-methyl-2,4-dioxo-1,4-dihydro-2H-quinazolin-3-yl)propyl]carbamic acid tert-butyl ester]
mortality rate [1]: 50(3/6) % | Induction percentage of convulsion [1]: 83(5/6) % | Initiation time of convulsion [1]: 15.4 ± 9.0 min | Duration of convulsion [1]: 33.0 ± 9.5 min | Increase of SOD activity, compared to control [2]: 0.7 ± 5.7 | Inhibitory effect of cell death by NMDA-induced excitable neurotoxicity ([3]; 1 μg/ml compound): 8.8% | Inhibitory effect of cell death by NMDA-induced excitable neurotoxicity ([3]; 2 μg/ml compound): 29.7% | inhibition at 67 µg/mL (thoracic aorta of rats): 3.7%
